One test addresses Cholinesterase (Equus caballus, UniProt P81908). Briefly: Inhibition of horse serum BChE after 15 mins by Ellman's method.
Another test addresses Acetylcholinesterase (Electrophorus electricus, UniProt O42275).

pIC50: −log10 of the molar value. A value given as a limit tells only on which side of the number the result lay.

The values below come from ChEMBL document CHEMBL1649377, “Synthesis, biological assessment and molecular modeling of new dihydroquinoline-3-carboxamides and dihydroquinoline-3-carbohydrazide derivatives as cholinesterase inhibitors, and Ca channel antagonists” (Eur J Med Chem, 2011).

Acetylcholinesterase, sequence (O42275 whole entry): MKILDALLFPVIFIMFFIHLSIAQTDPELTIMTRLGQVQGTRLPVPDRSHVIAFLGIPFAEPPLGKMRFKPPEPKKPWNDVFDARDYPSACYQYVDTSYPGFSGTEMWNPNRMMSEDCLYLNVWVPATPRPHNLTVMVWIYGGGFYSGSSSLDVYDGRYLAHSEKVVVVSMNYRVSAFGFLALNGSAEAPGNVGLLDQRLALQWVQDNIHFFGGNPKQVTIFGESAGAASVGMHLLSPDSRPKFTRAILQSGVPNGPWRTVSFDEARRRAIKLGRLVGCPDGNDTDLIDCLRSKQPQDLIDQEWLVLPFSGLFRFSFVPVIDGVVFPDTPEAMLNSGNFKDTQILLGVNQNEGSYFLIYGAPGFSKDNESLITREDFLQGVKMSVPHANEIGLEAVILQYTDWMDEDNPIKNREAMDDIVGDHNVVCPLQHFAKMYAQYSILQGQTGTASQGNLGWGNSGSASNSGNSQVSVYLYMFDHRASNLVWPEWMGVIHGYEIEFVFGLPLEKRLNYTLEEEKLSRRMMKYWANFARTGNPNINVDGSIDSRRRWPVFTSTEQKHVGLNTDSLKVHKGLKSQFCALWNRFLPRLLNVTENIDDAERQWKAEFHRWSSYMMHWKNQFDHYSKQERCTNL
Cholinesterase, sequence (P81908 whole entry): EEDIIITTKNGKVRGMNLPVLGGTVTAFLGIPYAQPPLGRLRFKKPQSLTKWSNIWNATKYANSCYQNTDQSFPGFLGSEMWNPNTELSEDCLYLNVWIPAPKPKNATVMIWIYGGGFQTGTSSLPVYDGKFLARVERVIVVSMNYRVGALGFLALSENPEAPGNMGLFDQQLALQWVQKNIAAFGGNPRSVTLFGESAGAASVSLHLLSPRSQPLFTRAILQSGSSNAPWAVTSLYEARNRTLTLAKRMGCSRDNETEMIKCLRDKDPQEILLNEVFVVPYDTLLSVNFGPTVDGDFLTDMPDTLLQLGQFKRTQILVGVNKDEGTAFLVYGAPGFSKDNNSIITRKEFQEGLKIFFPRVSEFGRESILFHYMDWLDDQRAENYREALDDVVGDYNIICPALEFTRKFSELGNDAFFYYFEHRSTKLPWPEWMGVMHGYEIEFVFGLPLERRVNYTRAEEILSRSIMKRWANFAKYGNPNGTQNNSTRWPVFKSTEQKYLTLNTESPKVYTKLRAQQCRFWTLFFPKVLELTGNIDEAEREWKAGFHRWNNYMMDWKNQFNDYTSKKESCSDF
Description for Acetylcholinesterase: Inhibition of electric eel AChE after 15 mins by Ellman's method

For the compound `NCCNCCNCCNC(=O)c1c(O)c2ccccc2[nH]c1=O`, the figures for the pIC50 at Cholinesterase and on Acetylcholinesterase were 4.72 and 4.89, respectively.

For the compound `CCN1C(=O)NC2C(=C1C)C(=O)Nc1c2cccc1[N+](=O)[O-]` (racemic), the pIC50 at Cholinesterase was < 4.52; on Acetylcholinesterase it was 5.22.

On to `Cn1c(=O)c(C(=O)NCCNCCNCCN)c(O)c2ccccc21`, for which the pIC50 is 5.28 on Cholinesterase and < 4.52 against Acetylcholinesterase.

In the case of `O=C(N/N=C/c1ccc(O)cc1O)c1c(O)c2c(Cl)cccc2[nH]c1=O`, the pIC50 against Cholinesterase was < 4.52; against Acetylcholinesterase, 4.92.

Consider `CC1=C2C(=O)Nc3c(cccc3[N+](=O)[O-])C2NC(=O)N1C` (racemic), for which the pIC50 on Cholinesterase was < 4.52; at Acetylcholinesterase, 5.10.
